Measured values reported in ChEMBL document CHEMBL5291721, “A preclinical secondary pharmacology resource illuminates target-adverse drug reaction associations of marketed drugs” (Nat Commun, 2023).
Values joined by “and” are separate entries in the source; they are usually repeats but may differ in a detail not shown here. Equal entries are not always repeated.

Key:
[1] = molecular target: Beta-2 adrenergic receptor (Homo sapiens, UniProt P07550); type: functional, cell-based
Progesterone receptor = molecular target: T1, Progesterone receptor (Homo sapiens, UniProt P06401)
T1 sequence (P06401 whole entry): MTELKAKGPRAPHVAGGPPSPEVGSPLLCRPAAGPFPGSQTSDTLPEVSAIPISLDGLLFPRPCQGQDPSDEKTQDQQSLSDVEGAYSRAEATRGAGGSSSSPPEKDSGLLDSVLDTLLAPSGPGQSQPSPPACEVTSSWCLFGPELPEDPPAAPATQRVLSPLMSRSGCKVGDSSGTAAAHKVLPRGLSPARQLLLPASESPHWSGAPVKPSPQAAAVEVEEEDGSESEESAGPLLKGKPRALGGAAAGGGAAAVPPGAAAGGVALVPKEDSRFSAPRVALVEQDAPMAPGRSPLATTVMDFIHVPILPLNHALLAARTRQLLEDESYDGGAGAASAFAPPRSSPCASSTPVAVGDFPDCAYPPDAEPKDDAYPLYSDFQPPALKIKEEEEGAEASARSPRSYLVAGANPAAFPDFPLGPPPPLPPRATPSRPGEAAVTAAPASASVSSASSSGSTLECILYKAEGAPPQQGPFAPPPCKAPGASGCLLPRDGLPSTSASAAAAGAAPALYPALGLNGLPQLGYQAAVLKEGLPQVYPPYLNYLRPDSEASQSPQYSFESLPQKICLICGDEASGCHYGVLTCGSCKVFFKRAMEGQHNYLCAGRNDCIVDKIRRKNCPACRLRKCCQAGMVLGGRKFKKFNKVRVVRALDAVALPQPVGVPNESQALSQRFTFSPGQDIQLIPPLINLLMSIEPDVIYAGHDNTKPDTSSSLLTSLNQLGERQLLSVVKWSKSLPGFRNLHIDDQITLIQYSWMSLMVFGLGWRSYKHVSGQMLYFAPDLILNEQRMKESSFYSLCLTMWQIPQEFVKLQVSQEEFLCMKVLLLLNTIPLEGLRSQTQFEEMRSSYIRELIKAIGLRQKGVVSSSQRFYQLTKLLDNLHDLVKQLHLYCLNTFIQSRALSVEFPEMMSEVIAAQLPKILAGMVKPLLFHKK

[2] = molecular target: T2, Alpha-1A adrenergic receptor (Homo sapiens, UniProt P35348)
T2 sequence (P35348 whole entry): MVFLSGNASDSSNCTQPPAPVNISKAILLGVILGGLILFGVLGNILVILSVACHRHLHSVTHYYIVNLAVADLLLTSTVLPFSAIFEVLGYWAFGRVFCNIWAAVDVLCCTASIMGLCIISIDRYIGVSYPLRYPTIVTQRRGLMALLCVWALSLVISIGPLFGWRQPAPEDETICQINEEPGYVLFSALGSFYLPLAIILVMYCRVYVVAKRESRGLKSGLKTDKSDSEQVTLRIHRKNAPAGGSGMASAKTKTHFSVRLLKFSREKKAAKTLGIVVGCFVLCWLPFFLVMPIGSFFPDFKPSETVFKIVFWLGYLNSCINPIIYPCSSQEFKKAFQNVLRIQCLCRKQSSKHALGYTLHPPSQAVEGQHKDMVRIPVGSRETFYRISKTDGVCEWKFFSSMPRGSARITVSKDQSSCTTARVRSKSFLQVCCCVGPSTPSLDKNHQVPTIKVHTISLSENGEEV

[3] = molecular target: Neurotensin receptor type 1 (Homo sapiens, UniProt P30989)
Mu-type opioid receptor = Mu-type opioid receptor (Homo sapiens, UniProt P35372)
[4] = molecular target: Gamma-aminobutyric acid receptor subunit alpha-1/alpha-2/beta-2/gamma-2 (Homo sapiens, UniProt P14867+P18507+P47869+P47870); type: functional, cell-based
Androgen receptor = molecular target: T3, Androgen receptor (Rattus norvegicus, UniProt P15207); type: functional
T3 sequence (P15207 whole entry): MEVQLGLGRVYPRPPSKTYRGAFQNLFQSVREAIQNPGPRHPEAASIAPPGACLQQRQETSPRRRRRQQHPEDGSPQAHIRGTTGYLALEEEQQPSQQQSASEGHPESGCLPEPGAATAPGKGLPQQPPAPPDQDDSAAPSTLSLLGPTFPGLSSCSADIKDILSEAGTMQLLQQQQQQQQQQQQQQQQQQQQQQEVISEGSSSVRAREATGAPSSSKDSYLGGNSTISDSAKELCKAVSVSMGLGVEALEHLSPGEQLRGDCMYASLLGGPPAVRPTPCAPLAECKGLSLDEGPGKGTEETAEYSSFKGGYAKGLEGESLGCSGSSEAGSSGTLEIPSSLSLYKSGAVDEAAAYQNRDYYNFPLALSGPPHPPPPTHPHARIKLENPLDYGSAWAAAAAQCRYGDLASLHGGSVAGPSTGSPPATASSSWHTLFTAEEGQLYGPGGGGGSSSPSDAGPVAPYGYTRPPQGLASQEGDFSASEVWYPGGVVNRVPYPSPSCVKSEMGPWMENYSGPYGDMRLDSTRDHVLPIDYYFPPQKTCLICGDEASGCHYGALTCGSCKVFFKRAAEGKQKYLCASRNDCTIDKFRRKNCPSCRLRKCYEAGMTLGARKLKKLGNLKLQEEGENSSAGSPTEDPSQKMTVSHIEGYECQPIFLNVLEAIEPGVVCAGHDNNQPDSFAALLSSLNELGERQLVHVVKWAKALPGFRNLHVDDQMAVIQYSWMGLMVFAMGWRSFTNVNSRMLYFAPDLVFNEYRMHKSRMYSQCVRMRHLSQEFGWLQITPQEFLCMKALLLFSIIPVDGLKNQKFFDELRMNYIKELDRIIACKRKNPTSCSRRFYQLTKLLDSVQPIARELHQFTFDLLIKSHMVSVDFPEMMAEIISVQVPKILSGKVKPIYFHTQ
Note: assay procedure not described here.

Neurotensin receptor type 1, sequence (P30989 whole entry): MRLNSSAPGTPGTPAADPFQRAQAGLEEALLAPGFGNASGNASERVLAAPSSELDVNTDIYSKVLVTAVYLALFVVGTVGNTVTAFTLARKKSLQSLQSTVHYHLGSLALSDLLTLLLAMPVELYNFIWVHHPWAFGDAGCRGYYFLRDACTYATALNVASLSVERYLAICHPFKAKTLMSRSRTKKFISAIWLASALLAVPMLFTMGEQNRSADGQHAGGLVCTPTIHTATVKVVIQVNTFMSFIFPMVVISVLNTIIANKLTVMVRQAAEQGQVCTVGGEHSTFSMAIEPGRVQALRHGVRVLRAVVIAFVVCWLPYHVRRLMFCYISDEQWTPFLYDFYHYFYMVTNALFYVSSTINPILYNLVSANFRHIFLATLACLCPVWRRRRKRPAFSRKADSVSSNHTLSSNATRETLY
Mu-type opioid receptor, sequence (P35372 whole entry): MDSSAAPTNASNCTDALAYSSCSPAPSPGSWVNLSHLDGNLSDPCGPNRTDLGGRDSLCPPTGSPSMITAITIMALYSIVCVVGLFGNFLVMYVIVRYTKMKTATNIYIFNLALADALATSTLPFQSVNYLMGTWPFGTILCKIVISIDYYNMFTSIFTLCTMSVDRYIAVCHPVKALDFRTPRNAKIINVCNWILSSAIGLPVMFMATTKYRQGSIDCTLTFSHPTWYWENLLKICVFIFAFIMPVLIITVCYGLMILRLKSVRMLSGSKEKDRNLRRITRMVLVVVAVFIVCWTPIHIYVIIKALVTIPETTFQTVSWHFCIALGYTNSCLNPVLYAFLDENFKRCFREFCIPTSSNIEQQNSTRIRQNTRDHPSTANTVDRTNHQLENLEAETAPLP
Gamma-aminobutyric acid receptor subunit alpha-1/alpha-2/beta-2/gamma-2, sequence (P14867 whole entry): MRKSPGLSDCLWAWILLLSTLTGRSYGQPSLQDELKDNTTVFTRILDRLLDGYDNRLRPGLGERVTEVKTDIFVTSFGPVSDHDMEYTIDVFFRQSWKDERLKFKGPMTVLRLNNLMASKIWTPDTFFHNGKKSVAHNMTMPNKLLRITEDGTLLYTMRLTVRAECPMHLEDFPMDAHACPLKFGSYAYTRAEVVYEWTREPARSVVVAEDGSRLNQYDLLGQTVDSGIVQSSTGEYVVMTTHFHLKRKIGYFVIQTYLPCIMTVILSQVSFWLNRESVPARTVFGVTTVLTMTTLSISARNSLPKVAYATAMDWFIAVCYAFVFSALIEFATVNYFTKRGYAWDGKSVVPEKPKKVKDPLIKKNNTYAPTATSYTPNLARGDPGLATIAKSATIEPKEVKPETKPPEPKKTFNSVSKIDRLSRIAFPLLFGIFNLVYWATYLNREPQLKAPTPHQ
Gamma-aminobutyric acid receptor subunit alpha-1/alpha-2/beta-2/gamma-2, sequence (P47870 whole entry): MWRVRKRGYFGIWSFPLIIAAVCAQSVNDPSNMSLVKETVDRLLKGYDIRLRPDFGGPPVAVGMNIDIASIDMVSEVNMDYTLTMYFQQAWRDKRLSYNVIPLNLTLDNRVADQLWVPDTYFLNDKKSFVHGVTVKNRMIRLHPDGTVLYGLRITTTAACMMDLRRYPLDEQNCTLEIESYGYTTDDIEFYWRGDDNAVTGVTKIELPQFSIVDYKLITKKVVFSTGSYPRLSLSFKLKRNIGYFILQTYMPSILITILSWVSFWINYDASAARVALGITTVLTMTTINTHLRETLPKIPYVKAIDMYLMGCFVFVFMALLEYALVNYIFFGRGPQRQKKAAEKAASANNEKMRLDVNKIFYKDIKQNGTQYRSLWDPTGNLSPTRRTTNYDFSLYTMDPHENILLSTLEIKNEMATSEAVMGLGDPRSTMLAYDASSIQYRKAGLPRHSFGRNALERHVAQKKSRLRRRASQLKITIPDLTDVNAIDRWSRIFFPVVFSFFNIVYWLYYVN
Gamma-aminobutyric acid receptor subunit alpha-1/alpha-2/beta-2/gamma-2, sequence (P18507 whole entry): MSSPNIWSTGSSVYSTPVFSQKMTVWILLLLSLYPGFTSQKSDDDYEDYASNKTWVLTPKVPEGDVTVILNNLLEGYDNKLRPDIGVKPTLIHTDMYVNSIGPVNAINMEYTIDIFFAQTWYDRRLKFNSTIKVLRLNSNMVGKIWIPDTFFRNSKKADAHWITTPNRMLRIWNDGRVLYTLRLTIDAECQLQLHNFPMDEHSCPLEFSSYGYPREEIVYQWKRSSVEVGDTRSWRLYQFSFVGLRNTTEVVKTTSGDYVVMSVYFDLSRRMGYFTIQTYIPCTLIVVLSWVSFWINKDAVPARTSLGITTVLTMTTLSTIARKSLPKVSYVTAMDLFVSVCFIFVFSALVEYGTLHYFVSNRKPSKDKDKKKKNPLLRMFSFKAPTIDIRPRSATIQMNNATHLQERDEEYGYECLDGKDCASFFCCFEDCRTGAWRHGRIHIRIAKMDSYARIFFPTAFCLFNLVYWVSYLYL
Gamma-aminobutyric acid receptor subunit alpha-1/alpha-2/beta-2/gamma-2, sequence (P47869 whole entry): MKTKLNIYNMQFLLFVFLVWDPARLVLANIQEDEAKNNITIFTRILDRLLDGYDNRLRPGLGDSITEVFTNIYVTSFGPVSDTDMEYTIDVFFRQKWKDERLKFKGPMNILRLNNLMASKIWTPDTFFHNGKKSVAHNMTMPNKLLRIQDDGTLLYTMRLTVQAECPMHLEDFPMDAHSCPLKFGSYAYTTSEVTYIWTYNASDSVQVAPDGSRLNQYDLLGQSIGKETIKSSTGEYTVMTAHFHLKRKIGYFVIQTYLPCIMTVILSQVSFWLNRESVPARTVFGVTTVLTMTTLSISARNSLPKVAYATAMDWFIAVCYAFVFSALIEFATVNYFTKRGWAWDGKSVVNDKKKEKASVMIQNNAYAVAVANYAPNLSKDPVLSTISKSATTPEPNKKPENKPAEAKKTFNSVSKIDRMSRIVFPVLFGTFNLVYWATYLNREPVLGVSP

Molecule | AC50 [1] [µM] | AC50 (Progesterone receptor) [µM] | AC50 [2] | AC50 (Mu-type opioid receptor) | other results
N=C(N)NCCCCCCC(=O)NC(O)C(=O)NCCCCNCCCN (stereo not drawn) | > 30 |  |  |  | 
NCCCC(O)(P(=O)(O)O)P(=O)(O)O [ALENDRONIC ACID] |  | > 30 | > 10 µM |  | AC50 [3]: > 30 µM
CC(=O)OCC(=O)[C@@]1(O)CC[C@H]2[C@@H]3CCC4=CC(=O)CC[C@]4(C)C3=CC[C@@]21C [ANECORTAVE ACETATE] |  |  | > 10 µM | > 30 µM | 
NS(=O)(=O)c1cc2c(cc1C(F)(F)F)NC(Cc1ccccc1)NS2(=O)=O (stereo not drawn) [BENDROFLUMETHIAZIDE] |  |  | > 10 µM | > 30 µM | 
CS(=O)(=O)OCCCCOS(C)(=O)=O [BUSULFAN] | > 30 |  |  |  | 
CCCC(C)(COC(N)=O)COC(=O)NC(C)C (stereo not drawn) [CARISOPRODOL] | > 30 | > 30 | 13.3 µM | > 30 µM | AC50 [3]: > 30 µM
CCCCCCNC(=O)n1cc(F)c(=O)[nH]c1=O [CARMOFUR] |  |  | > 30 µM |  | 
C=CC1=C(C(=O)O)N2C(=O)[C@@H](NC(=O)/C(=N\OCC(=O)O)c3csc(N)n3)[C@H]2SC1 [CEFIXIME] | > 30 |  |  |  | 
CO[C@@]1(NC(=O)Cc2cccs2)C(=O)N2C(C(=O)O)=C(COC(N)=O)CS[C@@H]21 [CEFOXITIN] | > 30 |  |  |  | 
CCN(CC)CCOC(=O)c1ccc(N)cc1Cl [CHLOROPROCAINE] | > 30 |  |  |  | AC50 [4]: > 30 µM
COc1cccc2c1C(=O)c1c(O)c3c(c(O)c1C2=O)C[C@@](O)(C(C)=O)C[C@@H]3O[C@H]1C[C@H](N)[C@H](O)[C@H](C)O1 [DAUNORUBICIN] | > 30 |  |  | 24 µM | 
N[C@H](Cc1cc(I)c(Oc2cc(I)c(O)c(I)c2)c(I)c1)C(=O)O [DEXTROTHYROXINE] | > 30 | > 30 | > 10 µM | > 30 µM | AC50 [3]: 4.8 µM
C[C@@H]1C[C@H]2[C@@H]3C[C@H](F)C4=CC(=O)C=C[C@]4(C)[C@@]3(F)[C@@H](O)C[C@]2(C)[C@H]1C(=O)CO [DIFLUCORTOLONE] |  |  |  |  | AC50 (Androgen receptor): 2.6 µM
Clc1ccc2c(c1)C(c1ccccc1)=NCc1nncn1-2 [ESTAZOLAM] |  | > 30 | > 10 µM | > 30 µM | 
CC(=O)OCC(CCn1cnc2cnc(N)nc21)COC(C)=O [FAMCICLOVIR] | > 30 | > 30 | 11.6 µM | > 30 µM | AC50 [3]: > 30 µM
O=C(O)c1ccccc1Nc1cccc(C(F)(F)F)c1 [FLUFENAMIC ACID] | > 30 | > 30 | 1 µM | > 30 µM | AC50 [3]: > 30 µM
Nc1ccn([C@@H]2O[C@H](CO)[C@@H](O)C2(F)F)c(=O)n1 [GEMCITABINE] |  |  | > 10 µM | > 30 µM | 
C#C[C@]1(O)CC[C@H]2[C@@H]3CCC4=CC(=O)CCC4=C3C=C[C@@]21CC [GESTRINONE] | > 30 |  |  |  | 
COC1=C(OC)C(=O)C(CCCCCCCCCCO)=C(C)C1=O [IDEBENONE] | > 30 | 27.6 | > 10 µM | > 10 µM | AC50 [3]: > 30 µM
CC#CCn1c(N2CCC[C@@H](N)C2)nc2c1c(=O)n(Cc1nc(C)c3ccccc3n1)c(=O)n2C [LINAGLIPTIN] |  | > 30 |  | > 30 µM | 
CC(=O)Nc1c(I)c(C(=O)N[C@H]2C(O)O[C@H](CO)[C@@H](O)[C@@H]2O)c(I)c(N(C)C(C)=O)c1I (stereo partly drawn) [METRIZAMIDE] |  |  | > 10 µM | > 30 µM | 

Molecule | AC50 [1] [µM] | AC50 (Progesterone receptor) [µM] | AC50 [2] | AC50 (Mu-type opioid receptor) | other results
O=C1CN=C(c2ccccc2)c2cc(Cl)ccc2N1 [NORDAZEPAM] | > 30 | > 30 | > 10 µM | > 10 µM | AC50 [3]: 14 µM
CC(CCc1ccccc1)NC(C)C(O)c1ccc(O)cc1 (stereo not drawn) [NYLIDRIN] | 0.082 | > 30 |  | 9.9 µM | AC50 [3]: > 30 µM
O=C1Nc2ccc(Cl)cc2C(c2ccccc2)=NC1O (stereo not drawn) [OXAZEPAM] | > 30 | > 30 |  | > 10 µM | AC50 [3]: > 30 µM
CC(=O)O[C@H]1C[C@@H]2CC[C@@H]3[C@H](CC[C@@]4(C)[C@H]3C[C@H]([N+]3(C)CCCCC3)[C@@H]4OC(C)=O)[C@@]2(C)C[C@@H]1[N+]1(C)CCCCC1 [PANCURONIUM] |  |  | > 10 µM | > 30 µM | 
CCn1cc(C(=O)O)c(=O)c2cc(F)c(N3CCN(C)CC3)cc21 [PEFLOXACIN] | > 30 |  |  |  | 
CC1(C)C(C=C(Cl)Cl)C1C(=O)OCc1cccc(Oc2ccccc2)c1 (stereo not drawn) [PERMETHRIN] |  |  | > 10 µM | > 30 µM | 
CC(=O)c1ccc2c(c1)N(CCCN1CCC(CCO)CC1)c1ccccc1S2 [PIPERACETAZINE] |  |  | 0.18 µM |  | 
C[n+]1ccccc1/C=N/O [PRALIDOXIME] | > 30 |  |  |  | 
CCCNC(C)C(=O)Nc1ccccc1C (stereo not drawn) [PRILOCAINE] | > 30 |  |  |  | 
NC(=O)CCC/N=C(\c1ccc(Cl)cc1)c1cc(F)ccc1O [PROGABIDE] | > 30 |  | > 10 µM | > 30 µM | 
CCCOC(C(=O)OC1CCN(C)CC1)(c1ccccc1)c1ccccc1 [PROPIVERINE] |  |  |  | 0.75 µM | 
CC(NCCc1ccc(O)cc1)C(O)c1ccc(O)cc1 (stereo not drawn) [RITODRINE] |  |  | 10 µM and 1.54 µM | 13 µM and 9.2 µM | 
CC(C)CC(N(C)C)C1(c2ccc(Cl)cc2)CCC1 (stereo not drawn) [SIBUTRAMINE] |  | > 30 |  | > 30 µM | AC50 [3]: > 30 µM
[H]/N=C(/N)N[C@H]1[C@H](O)[C@@H](O)[C@H](O[C@@H]2O[C@@H](C)[C@](O)(C=O)[C@H]2O[C@@H]2O[C@@H](CO)[C@H](O)[C@@H](O)[C@@H]2NC)[C@@H](N/C(N)=N\[H])[C@@H]1O [STREPTOMYCIN] |  | > 30 | > 10 µM | > 10 µM | AC50 [3]: > 30 µM
COc1c(O[C@@H]2O[C@H](CO)[C@@H](O)[C@H](O)[C@H]2O)cc2c(c1OC)-c1ccc(SC)c(=O)cc1[C@@H](NC(C)=O)CC2 [THIOCOLCHICOSIDE] | > 30 |  |  |  | 
Cc1cccc(N(C)C(=S)Oc2ccc3ccccc3c2)c1 [TOLNAFTATE] |  |  | > 30 µM | > 30 µM | 
COc1ccc(C(CN(C)C)C2(O)CCCCC2)cc1 (stereo not drawn) [VENLAFAXINE] | > 30 | > 30 |  | > 30 µM | 
C=CC(N)CCC(=O)O (stereo not drawn) [VIGABATRIN] |  |  | > 10 µM | > 30 µM | 
N#C[C@@H]1CCCN1C(=O)CNC12CC3CC(CC(O)(C3)C1)C2 [VILDAGLIPTIN] |  | > 30 |  | > 10 µM | AC50 [3]: > 10 µM
COLISTIN | > 30 |  |  |  | 
